These are literature values, as cited in US20050208119A1, “Encapsulated oral chelating preparations” (priority 2004, published 2005).

The conditions of the data set: oral administration.

Structures are written as SMILES.

On to `O=C(O)CN(CCN(CC(=O)O)CC(=O)O)CC(=O)O` [EDTA, ethylene-diaminetetraacetic acid], for which, for the setting “general consensus”, the “fraction absorbed when administered by mouth” value is recorded as “about five”. Besides, the “unabsorbed fraction that remains within the digestive tract” value (reported) was 95%.
